In ChEMBL document CHEMBL5543084, “Development of cannabidiol derivatives as potent broad-spectrum antibacterial agents with membrane-disruptive mechanism” (Eur J Med Chem, 2024):
Values after ≈ are worked out from the molar mass of the structure shown.

Legend:
Staphylococcus aureus [1] = assay: Antibacterial activity against Staphylococcus aureus ATCC 29213 assessed as inhibition of bacterial growth incubated for 24 hrs by broth dilution method; assay type: functional
Staphylococcus aureus [2] = assay: Antibacterial activity against methicillin-resistant Staphylococcus aureus N315 assessed as inhibition of bacterial growth incubated for 24 hrs by broth dilution method; assay type: functional
Staphylococcus aureus [3] = assay: Antibacterial activity against methicillin-resistant Staphylococcus aureus NCTC 10442 assessed as inhibition of bacterial growth incubated for 24 hrs by broth dilution method; assay type: functional
Escherichia coli = assay: Antibacterial activity against Escherichia coli ATCC 25922 assessed as inhibition of bacterial growth incubated for 24 hrs by broth dilution method; assay type: functional
Acinetobacter baumannii [4] = assay: Antibacterial activity against Acinetobacter baumannii ATCC 17978 assessed as inhibition of bacterial growth incubated for 24 hrs by broth dilution method; assay type: functional
Acinetobacter baumannii [5] = assay: Antibacterial activity against Acinetobacter baumannii R2889 assessed as inhibition of bacterial growth incubated for 24 hrs by broth dilution method; assay type: functional
Klebsiella pneumoniae [6] = assay: Antibacterial activity against Klebsiella pneumoniae ATCC 14581 assessed as inhibition of bacterial growth incubated for 24 hrs by broth dilution method; assay type: functional
Klebsiella pneumoniae [7] = assay: Antibacterial activity against Klebsiella pneumoniae ATCC 10031 assessed as inhibition of bacterial growth incubated for 24 hrs by broth dilution method; assay type: functional
Pseudomonas aeruginosa = assay: Antibacterial activity against Pseudomonas aeruginosa ATCC 9027 assessed as inhibition of bacterial growth incubated for 24 hrs by broth dilution method; assay type: functional
[8] = Hemolytic activity against rabbit blood cells incubated for 1 hr relative to control; assay type: toxicity, cell-based, Oryctolagus cuniculus, Erythrocyte; conditions: rabbit blood cells (erythrocytes)

| Compound | MIC (Staphylococcus aureus [1]) [µg/mL] | MIC (Staphylococcus aureus [2]) [µg/mL] | MIC (Staphylococcus aureus [3]) [µg/mL] | MIC (Escherichia coli) [µg/mL] | MIC (Acinetobacter baumannii [4]) [µg/mL] | MIC (Acinetobacter baumannii [5]) [µg/mL] | MIC (Klebsiella pneumoniae [6]) [µg/mL] | MIC (Klebsiella pneumoniae [7]) [µg/mL] | MIC (Pseudomonas aeruginosa) [µg/mL] | HC50 at 1 h [8] [µg/mL] |
| --- | --- | --- | --- | --- | --- | --- | --- | --- | --- | --- |
| C=C(C)[C@@H]1CCC(C)=C[C@H]1c1c(OCCCCN(C)CCCNC)cc(CCCCC)cc1OCCCCN(C)CCCNC | 1.56 (≈ 2.49 µM) | 1.56 (≈ 2.49 µM) | 1.56 (≈ 2.49 µM) | 3.12 (≈ 4.98 µM) | 1.56 (≈ 2.49 µM) | 3.12 (≈ 4.98 µM) | 3.12 (≈ 4.98 µM) | 1.56 (≈ 2.49 µM) | 3.12 (≈ 4.98 µM) | > 200 |
| C=C(C)[C@@H]1CCC(C)=C[C@H]1c1c(OCCCCCCBr)cc(CCCCC)cc1OCCCCCCBr | > 50 | > 50 | > 50 | > 100 | > 50 | > 50 | > 50 | > 50 | > 50 | > 200 |
| C=C(C)[C@@H]1CCC(C)=C[C@H]1c1c(OCCCCN)cc(CCCCC)cc1OCCCCN | 3.12 (≈ 6.84 µM) | 3.12 (≈ 6.84 µM) | 3.12 (≈ 6.84 µM) | 3.12 (≈ 6.84 µM) | 3.12 (≈ 6.84 µM) | 3.12 (≈ 6.84 µM) | 12.5 (≈ 27.4 µM) | 6.25 (≈ 13.7 µM) | 50 (≈ 109 µM) | 141 |
| C=C(C)[C@@H]1CCC(C)=C[C@H]1c1c(OCCCCN(CCCC)CCCC)cc(CCCCC)cc1OCCCCN(CCCC)CCCC | > 50 | > 50 | > 50 | > 100 | > 50 | > 50 | > 50 | > 50 | > 50 | > 200 |
| C=C(C)[C@@H]1CCC(C)=C[C@H]1c1c(OCCCCNC(=N)N)cc(CCCCC)cc1OCCCCNC(=N)N | 0.78 (≈ 1.44 µM) | 0.39 (≈ 0.721 µM) | 0.78 (≈ 1.44 µM) | 0.78 (≈ 1.44 µM) | 1.56 (≈ 2.88 µM) | 0.78 (≈ 1.44 µM) | 0.78 (≈ 1.44 µM) | 1.56 (≈ 2.88 µM) | 6.25 (≈ 11.6 µM) | 98.4 |
| C=C(C)[C@@H]1CCC(C)=C[C@H]1c1c(OCC(=O)OCC)cc(CCCCC)cc1OCC(=O)OCC | > 50 | > 50 | > 50 | > 100 | > 50 | > 50 | > 50 | > 50 | > 50 | > 200 |
| C=C(C)[C@@H]1CCC(C)=C[C@H]1c1c(OCC(=O)N[C@@H](CCCCN)C(=O)OC)cc(CCCCC)cc1OCC(=O)N[C@@H](CCCCN)C(=O)OC | 25 (≈ 35 µM) | 25 (≈ 35 µM) | 25 (≈ 35 µM) | 50 (≈ 69.9 µM) | 50 (≈ 69.9 µM) | 50 (≈ 69.9 µM) | > 50 | 50 (≈ 69.9 µM) | > 50 | 116 |
| C=C(C)[C@@H]1CCC(C)=C[C@H]1c1c(OCCCCN2CCCC2)cc(CCCCC)cc1OCCCCN1CCCC1 | 3.12 (≈ 5.53 µM) | 3.12 (≈ 5.53 µM) | 3.12 (≈ 5.53 µM) | 12.5 (≈ 22.1 µM) | 25 (≈ 44.3 µM) | 12.5 (≈ 22.1 µM) | 25 (≈ 44.3 µM) | 12.5 (≈ 22.1 µM) | 25 (≈ 44.3 µM) | 174 |
| C=C(C)[C@@H]1CCC(C)=C[C@H]1c1c(OCCCCN(C)C)cc(CCCCC)cc1OCCCCN(C)C | 3.12 (≈ 6.09 µM) | 3.12 (≈ 6.09 µM) | 6.25 (≈ 12.2 µM) | 6.25 (≈ 12.2 µM) | 6.25 (≈ 12.2 µM) | 6.25 (≈ 12.2 µM) | 6.25 (≈ 12.2 µM) | 6.25 (≈ 12.2 µM) | 50 (≈ 97.5 µM) | 132 |
| C=C(C)[C@@H]1CCC(C)=C[C@H]1c1c(OCC(=O)N[C@@H](CCCNC(=N)N)C(=O)OC)cc(CCCCC)cc1OCC(=O)N[C@@H](CCCNC(=N)N)C(=O)OC | 1.56 (≈ 2.02 µM) | 1.56 (≈ 2.02 µM) | 0.78 (≈ 1.01 µM) | 6.25 (≈ 8.11 µM) | 12.5 (≈ 16.2 µM) | 25 (≈ 32.4 µM) | 25 (≈ 32.4 µM) | 25 (≈ 32.4 µM) | 50 (≈ 64.9 µM) | > 200 |
| C=C(C)[C@@H]1CCC(C)=C[C@H]1c1c(OCC(=O)O)cc(CCCCC)cc1OCC(=O)O | > 50 | > 50 | > 50 | > 50 | > 50 | > 50 | > 50 | > 50 | > 50 | > 200 |
| C=C(C)[C@@H]1CCC(C)=C[C@H]1c1c(OCCCCCN)cc(CCCCC)cc1OCCCCCN | 3.12 (≈ 6.45 µM) | 3.12 (≈ 6.45 µM) | 1.56 (≈ 3.22 µM) | 6.25 (≈ 12.9 µM) | 6.25 (≈ 12.9 µM) | 12.5 (≈ 25.8 µM) | 6.25 (≈ 12.9 µM) | 6.25 (≈ 12.9 µM) | > 50 | 65.9 |
| C=C(C)[C@@H]1CCC(C)=C[C@H]1c1c(OCCCN)cc(CCCCC)cc1OCCCN | 6.25 (≈ 14.6 µM) | 6.25 (≈ 14.6 µM) | 6.25 (≈ 14.6 µM) | 6.25 (≈ 14.6 µM) | 6.25 (≈ 14.6 µM) | 12.5 (≈ 29.2 µM) | 12.5 (≈ 29.2 µM) | 6.25 (≈ 14.6 µM) | > 50 | > 200 |
| C=C(C)[C@@H]1CCC(C)=C[C@H]1c1c(OCC(=O)N[C@@H](CCCNC(=N)N)C(N)=O)cc(CCCCC)cc1OCC(=O)N[C@@H](CCCNC(=N)N)C(N)=O | 12.5 (≈ 16.9 µM) | 12.5 (≈ 16.9 µM) | 12.5 (≈ 16.9 µM) | > 50 | 50 (≈ 67.5 µM) | > 50 | > 50 | > 50 | 50 (≈ 67.5 µM) | > 200 |
| C=C(C)[C@@H]1CCC(C)=C[C@H]1c1c(OCC(=O)N[C@@H](CCCNC(=N)N)C(=O)N[C@@H](CCCNC(=N)N)C(=O)OC)cc(CCCCC)cc1OCC(=O)N[C@@H](CCCNC(=N)N)C(=O)N[C@@H](CCCNC(=N)N)C(=O)OC | 1.56 (≈ 1.44 µM) | 1.56 (≈ 1.44 µM) | 1.56 (≈ 1.44 µM) | 50 (≈ 46.2 µM) | 25 (≈ 23.1 µM) | 50 (≈ 46.2 µM) | > 50 | 50 (≈ 46.2 µM) | 50 (≈ 46.2 µM) | > 200 |
| C=C(C)[C@@H]1CCC(C)=C[C@H]1c1c(OCCCCCBr)cc(CCCCC)cc1OCCCCCBr | > 50 | > 50 | > 50 | > 50 | > 50 | > 50 | > 50 | > 50 | > 50 | > 200 |
| C=C(C)[C@@H]1CCC(C)=C[C@H]1c1c(OCCCCNC)cc(CCCCC)cc1OCCCCNC | 3.12 (≈ 6.45 µM) | 3.12 (≈ 6.45 µM) | 3.12 (≈ 6.45 µM) | 50 (≈ 103 µM) | 25 (≈ 51.6 µM) | 25 (≈ 51.6 µM) | 50 (≈ 103 µM) | 25 (≈ 51.6 µM) | > 50 | 107 |
| C=C(C)[C@@H]1CCC(C)=C[C@H]1c1c(OCCCCCCN)cc(CCCCC)cc1OCCCCCCN | 1.56 (≈ 3.04 µM) | 1.56 (≈ 3.04 µM) | 0.78 (≈ 1.52 µM) | 3.12 (≈ 6.09 µM) | 3.12 (≈ 6.09 µM) | 3.12 (≈ 6.09 µM) | 0.78 (≈ 1.52 µM) | 1.56 (≈ 3.04 µM) | > 50 | 59.7 |
| C=C(C)[C@@H]1CCC(C)=C[C@H]1c1c(OCCCCN(CCO)CCO)cc(CCCCC)cc1OCCCCN(CCO)CCO | 25 (≈ 39.5 µM) | 25 (≈ 39.5 µM) | 25 (≈ 39.5 µM) | 100 (≈ 158 µM) | > 50 | 50 (≈ 79 µM) | 50 (≈ 79 µM) | 25 (≈ 39.5 µM) | > 50 | > 200 |
| C=C(C)[C@@H]1CCC(C)=C[C@H]1c1c(OCCCCN(CC)CC)cc(CCCCC)cc1OCCCCN(CC)CC | 6.25 (≈ 11 µM) | 6.25 (≈ 11 µM) | 12.5 (≈ 22 µM) | > 50 | > 50 | 50 (≈ 87.9 µM) | > 50 | 50 (≈ 87.9 µM) | > 50 | > 200 |
| CN[C@H](CC(C)C)C(=O)N[C@H]1C(=O)N[C@@H](CC(N)=O)C(=O)N[C@H]2C(=O)N[C@H]3C(=O)N[C@H](C(=O)N[C@H](C(=O)O)c4cc(O)cc(O)c4-c4cc3ccc4O)[C@H](O)c3ccc(c(Cl)c3)Oc3cc2cc(c3O[C@@H]2O[C@H](CO)[C@@H](O)[C@H](O)[C@H]2O[C@H]2C[C@](C)(N)[C@H](O)[C@H](C)O2)Oc2ccc(cc2Cl)[C@H]1O [VANCOMYCIN] | 0.78 (≈ 0.538 µM) | 1.56 (≈ 1.08 µM) | 1.56 (≈ 1.08 µM) | > 50 | – | – | – | – | – | > 200 |
| C=C(C)[C@@H]1CCC(C)=C[C@H]1c1c(OCCCCCNC(=N)N)cc(CCCCC)cc1OCCCCCNC(=N)N | 3.12 (≈ 5.49 µM) | 1.56 (≈ 2.74 µM) | 0.78 (≈ 1.37 µM) | 3.12 (≈ 5.49 µM) | 3.12 (≈ 5.49 µM) | 3.12 (≈ 5.49 µM) | 3.12 (≈ 5.49 µM) | 1.56 (≈ 2.74 µM) | 25 (≈ 43.9 µM) | 60.5 |
| C=C(C)[C@@H]1CCC(C)=C[C@H]1c1c(OCCCCCCNC(=N)N)cc(CCCCC)cc1OCCCCCCNC(=N)N | 0.78 (≈ 1.31 µM) | 1.56 (≈ 2.61 µM) | 1.56 (≈ 2.61 µM) | 12.5 (≈ 20.9 µM) | 12.5 (≈ 20.9 µM) | 12.5 (≈ 20.9 µM) | > 50 | 25 (≈ 41.9 µM) | > 50 | 72.6 |
| C=C(C)[C@@H]1CCC(C)=C[C@H]1c1c(OCCCBr)cc(CCCCC)cc1OCCCBr | > 50 | > 50 | > 50 | > 50 | > 50 | > 50 | > 50 | > 50 | > 50 | > 200 |
| C=C(C)[C@@H]1CCC(C)=C[C@H]1c1c(OCCCCNCCC)cc(CCCCC)cc1OCCCCNCCC | 3.12 (≈ 5.78 µM) | 3.12 (≈ 5.78 µM) | 1.56 (≈ 2.88 µM) | 25 (≈ 46.2 µM) | 12.5 (≈ 23.1 µM) | 12.5 (≈ 23.1 µM) | 25 (≈ 46.2 µM) | 12.5 (≈ 23.1 µM) | > 50 | 79.3 |
| C=C(C)[C@@H]1CCC(C)=C[C@H]1c1c(OCCCCN2CCSCC2)cc(CCCCC)cc1OCCCCN1CCSCC1 | > 50 | > 50 | > 50 | > 100 | > 50 | > 50 | > 50 | > 50 | > 50 | > 200 |
